Data published in patent US20260224658A1, “PRODUCTS AND METHODS FOR THE DIAGNOSIS AND TREATMENT OF P[…]” (priority 2023, published 2026).
Where a SMILES comes first, the peptide text is derived from it. [ ]: non-standard residue; d: D form.

Key:
[1] = test system: MPAO1; test: microbe, parasite or virus in culture; assay type: cell-based, Pseudomonas aeruginosa; conditions: strain MPAO1
Procedure: (§1) MIC experiments were performed using biological triplicates.

[2] = test system: PAO1; test: microbe, parasite or virus in culture; assay type: cell-based, Pseudomonas aeruginosa; conditions: strain PAO1
Procedure: as §1

[3] = test system: predicted MMR-deficient clinical isolates; test: In vitro adaptive evolution of clinical isolates from pwCF; assay type: cell-based, Pseudomonas aeruginosa; conditions: isolates CFP6_Pa2, CFP8_Pa1 and CFP9_Pa1
Procedure: as §1

[4] = test system: MPAO1; test: In vitro adaptive evolution (serial passaging) with MIC determination; assay type: cell-based, Pseudomonas aeruginosa
Procedure: (§2) MICs were determined via microbroth dilution assay in 96-well culture plates with 2-fold serial dilutions of tested antibiotic in Mueller-Hinton (cation-adjusted) broth, inoculated with 50 μL of 2.75×10^5 CFU/mL of each bacterial strain and incubated at 37° C., 200 rpm for 24 hours. MIC experiments were performed using biological triplicates.
(§3) Serial passaging of bacterial strains was performed in 96-well culture plates with 2-fold serial dilutions of antibiotic in MH broth, inoculated with 50 μL 2.75×10^5 CFU/mL of each strain and incubated at 37° C., 200 rpm for 24 hours. […] The bacteria were then serially passaged in the same antibiotic and MIC determined for all antibiotics (aztreonam, ciprofloxacin, D-CONGA, D-CONGA-Q7, polymyxin B). See Antimicrobial susceptibility testing section. The bacteria were serially passaged a total of 10 times.
(§4) All resistance acquisition data was analyzed in units of fold-change to normalize for differences in starting MIC across strains. Fold-change in MIC data for all strains and treatment groups was natural log-transformed and simple linear regression was performed considering each replicate fold-change value as an individual point. Slope, standard error of slope, and total number of values of each treatment group of interest were analyzed via unpaired t-test (ΔmutS vs WT) or ordinary one-way ANOVA (cross-resistance acquisition of ΔmutS+AB vs −AB vs WT), and α-values were corrected for multiple comparisons using the Bonferroni method. Differences in estimated mutation rate across treatment groups were determined via ordinary one-way ANOVA (Brown-Forsythe test). For all statistical tests, p<0.05 was considered significant. All figures were created and statistical tests were done using GraphPad Prism 9.3.1.

[5] = test system: MPAO1-ΔmutS; test: as above; assay type: cell-based, Pseudomonas aeruginosa; conditions: for cross-resistance to antibiotics induced by treatment / cross-resistance to peptides induced by treatment: MPAO1-ΔmutS evolved in the named drug; for resistance acquisition on repeated exposure to the drug: MPAO1-ΔmutS, monotherapy
Procedure: as §2, §3, §4

[6] = test system: MPAO1-ΔmutL; test: as above; assay type: cell-based, Pseudomonas aeruginosa; conditions: MPAO1-ΔmutL, monotherapy
Procedure: as §2, §3, §4

[7] = test system: MPAO1-ΔmutS; test: MIC, microbroth dilution assay; assay type: cell-based, Pseudomonas aeruginosa; conditions: strain ΔmutS
Procedure: as §1

[8] = test system: MPAO1-ΔmutL; test: MIC, microbroth dilution assay; assay type: cell-based, Pseudomonas aeruginosa; conditions: strain ΔmutL
Procedure: as §1

[9] = test system: drug-resistant clinical isolates of Staphylococcus aureus, Klebsiella pneumoniae, Acinetobacter baumannii, and P. aeruginosa; conditions: in vitro and in vivo, reference 23; cited from earlier work
[10] = test system: wild type P. aeruginosa (PAO1); conditions: reference 23; cited from earlier work
[11] = MPAO1 passaged with No Antibiotic (Table 4)
[12] = MPAO1 passaged with No Antibiotic (Table 8)
[13] = MPAO1-ΔmutS evolved in AZ + COL
[14] = MPAO1-ΔmutS passaged with No Antibiotic (Table 4)
[15] = MPAO1-ΔmutS passaged with No Antibiotic (Table 8)
[16] = MPAO1 evolved in AZ + D-CONGA-Q7
[17] = MPAO1-ΔmutS evolved in AZ + D-CONGA
[18] = MPAO1-ΔmutS evolved in AZ + D-CONGA-Q7
[19] = MPAO1-ΔmutS evolved in D-CONGA-Q7

Row | Compound | fold-change relative to starting MIC before treatment ([4]; MPAO1 evolved in AZ + COL) | fold-change relative to starting MIC before treatment ([4]; MPAO1 evolved in COL) | fold-change relative to starting MIC before treatment [4, 11] | fold-change relative to starting MIC before treatment [4, 12] | fold-change relative to starting MIC before treatment [5, 13] | fold-change relative to starting MIC before treatment ([5]; MPAO1-ΔmutS evolved in COL) | cross-resistance to antibiotics induced by treatment [5] | cross-resistance to peptides induced by treatment [5] | fold-change relative to starting MIC before treatment [5, 14] | fold-change relative to starting MIC before treatment [5, 15] | resistance acquisition on repeated exposure to the drug [5] | efficacy against drug-resistant clinical isolates [9] | fold-change relative to starting MIC before treatment ([4]; MPAO1 evolved in AZ) | fold-change relative to starting MIC before treatment ([4]; MPAO1 evolved in AZ + D-CONGA) | fold-change relative to starting MIC before treatment [4, 16] | fold-change relative to starting MIC before treatment ([4]; MPAO1 evolved in D-CONGA) | fold-change relative to starting MIC before treatment ([4]; MPAO1 evolved in D-CONGA-Q7) | fold-change relative to starting MIC before treatment ([5]; MPAO1-ΔmutS evolved in AZ) | fold-change relative to starting MIC before treatment [5, 17] | fold-change relative to starting MIC before treatment [5, 18] | also measured
1 | Colistin | 2.67 | 2 | 1 | 1 | 1.67 | 20 | failed to induce marked cross-resistance to antibiotics | induced cross-resistance to other peptides | 1 | 1 | Rapid acquisition of resistance | – | – | – | – | – | – | – | – | – | MIC, average of triplicates [1]: 2 µg/mL; MIC, average of triplicates [2]: 2 µg/mL; resistance acquisition under monotherapy [3]: rapidly acquired resistance; resistance acquisition on repeated exposure to the drug ([4]; MPAO1, monotherapy, more slowly than MPAO1-ΔmutS): eventually displayed an elevated minimum inhibitory concentration (MIC); Average MIC at end point ([4]; MPAO1 evolved in AZ + COL): 5 µg/mL; Average MIC at end point ([4]; MPAO1 evolved in COL): 4 µg/mL; Average MIC at end point [4, 11]: 2 µg/mL; Average MIC at end point [4, 12]: 2 µg/mL; Average MIC at end point [5, 13]: 3 µg/mL; Average MIC at end point ([5]; MPAO1-ΔmutS evolved in COL): 53 µg/mL; Average MIC at end point [5, 14]: 2 µg/mL; Average MIC at end point [5, 15]: 2 µg/mL; resistance acquisition on repeated exposure to the drug [6]: rapid resistance acquisition; MIC, average of triplicates [7]: 2 µg/mL; MIC, average of triplicates [8]: 2 µg/mL
2 | CC(C)C[C@@H](NC(=O)[C@@H](CCCNC(=N)N)NC(=O)[C@@H](CCCNC(=N)N)NC(=O)[C@@H](C)NC(=O)[C@@H](Cc1c[nH]c2ccccc12)NC(=O)[C@@H](CCCNC(=N)N)NC(=O)[C@H](N)CCCNC(=N)N)C(=O)N[C@H](C)C(=O)N[C@H](Cc1ccccc1)C(=O)N[C@H](C)C(=O)N[C@H](Cc1ccccc1)C(=O)N[C@H](CCCNC(=N)N)C(=O)N[C@H](CCCNC(=N)N)C(N)=O [D-CONGA] (H-[dR][dR][dW][dA][dR][dR][dL][dA][dF][dA][dF][dR][dR]-NH2; N-terminus and C-terminus assumed) | 1 | 1 | 2 | 1 | 1.3 | 3 | failed to induce marked cross-resistance to antibiotics | induced cross-resistance to other peptides | 1 | 1 | developed resistance | efficacious in vitro and in vivo | 1.2 | 1.2 | 1.2 | 1 | 1.4 | 0.33 | 0.43 | 0.67 | fold-change relative to starting MIC before treatment ([5]; MPAO1-ΔmutS evolved in Chl): 1; fold-change relative to starting MIC before treatment ([5]; MPAO1-ΔmutS evolved in D-CONGA): 2; fold-change relative to starting MIC before treatment [5, 19]: 3.33; induction of resistance [10]: has not been observed
3 | CC(C)C[C@@H](NC(=O)[C@@H](CCC(N)=O)NC(=O)[C@@H](CCCNC(=N)N)NC(=O)[C@@H](CCCNC(=N)N)NC(=O)[C@@H](C)NC(=O)[C@@H](Cc1c[nH]c2ccccc12)NC(=O)[C@@H](CCCNC(=N)N)NC(=O)[C@H](N)CCCNC(=N)N)C(=O)N[C@H](C)C(=O)N[C@H](Cc1ccccc1)C(=O)N[C@H](C)C(=O)N[C@H](Cc1ccccc1)C(=O)N[C@H](CCCNC(=N)N)C(=O)N[C@H](CCCNC(=N)N)C(N)=O [D-CONGA-Q7] (H-[dR][dR][dW][dA][dR][dR][dQ][dL][dA][dF][dA][dF][dR][dR]-NH2; N-terminus and C-terminus assumed) | 1 | 1 | 1 | 1 | 2 | 1.75 | failed to induce marked cross-resistance to antibiotics | induced cross-resistance to other peptides | 1 | 1.38 | developed resistance | efficacious in vitro and in vivo | 1.2 | 1.2 | 1.2 | 1 | 1.33 | 0.42 | 0.67 | 0.67 | fold-change relative to starting MIC before treatment ([5]; MPAO1-ΔmutS evolved in Chl): 1; fold-change relative to starting MIC before treatment ([5]; MPAO1-ΔmutS evolved in D-CONGA): 2.67; fold-change relative to starting MIC before treatment [5, 19]: 3.33; induction of resistance [10]: has not been observed
